Target: cAMP and cAMP-inhibited cGMP 3',5'-cyclic phosphodiesterase 10A (Homo sapiens, UniProt Q9Y233)
Experiment: PDE10 Fluorescence Polarization (FP) Assay: The fluorescence polarization assay for cyclic nucleotide phosphodiesterases was performed using an IMAP FP kit supplied by Molecular Devices, Sunnyvale, Calif. (product # R8139). IMAPU technology has been applied previously to phosphodiesterase assays (Huang, W., et al., J. Biomol Screen, 2002, 7: 215). Assays were performed at room temperature in 384-well microtiter plates with an incubation volume of 20.2 uL. Solutions of test compounds were prepared in DMSO and serially diluted with DMSO to yield 8 uL of each of 10 solutions differing by 3-fold in concentration, at 32 serial dilutions per plate.

Chain of cAMP and cAMP-inhibited cGMP 3',5'-cyclic phosphodiesterase 10A (Q9Y233 whole entry): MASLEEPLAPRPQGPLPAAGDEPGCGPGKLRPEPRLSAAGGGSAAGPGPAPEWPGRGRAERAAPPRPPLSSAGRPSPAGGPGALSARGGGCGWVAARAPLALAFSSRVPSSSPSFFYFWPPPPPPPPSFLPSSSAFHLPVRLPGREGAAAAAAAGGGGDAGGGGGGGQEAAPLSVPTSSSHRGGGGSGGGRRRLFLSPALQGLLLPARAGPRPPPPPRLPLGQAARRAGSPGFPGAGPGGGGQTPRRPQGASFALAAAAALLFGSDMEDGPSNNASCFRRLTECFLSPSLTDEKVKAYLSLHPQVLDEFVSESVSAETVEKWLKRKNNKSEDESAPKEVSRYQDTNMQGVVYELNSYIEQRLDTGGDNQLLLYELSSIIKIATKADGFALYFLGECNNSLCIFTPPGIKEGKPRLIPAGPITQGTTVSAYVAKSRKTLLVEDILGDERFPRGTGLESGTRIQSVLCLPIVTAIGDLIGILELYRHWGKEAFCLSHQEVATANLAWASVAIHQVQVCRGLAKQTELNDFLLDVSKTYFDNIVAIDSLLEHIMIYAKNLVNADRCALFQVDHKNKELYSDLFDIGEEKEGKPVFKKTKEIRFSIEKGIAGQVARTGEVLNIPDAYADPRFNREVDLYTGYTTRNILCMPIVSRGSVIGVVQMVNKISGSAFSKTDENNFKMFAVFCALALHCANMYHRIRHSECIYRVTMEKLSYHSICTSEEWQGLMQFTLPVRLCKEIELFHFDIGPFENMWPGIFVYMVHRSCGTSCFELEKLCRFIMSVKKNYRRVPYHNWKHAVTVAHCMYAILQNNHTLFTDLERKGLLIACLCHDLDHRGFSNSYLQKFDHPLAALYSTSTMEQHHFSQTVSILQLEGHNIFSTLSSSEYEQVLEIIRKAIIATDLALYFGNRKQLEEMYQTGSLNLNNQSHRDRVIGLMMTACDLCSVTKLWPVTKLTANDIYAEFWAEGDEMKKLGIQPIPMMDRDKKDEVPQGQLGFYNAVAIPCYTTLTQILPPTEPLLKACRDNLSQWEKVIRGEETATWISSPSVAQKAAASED

Row | Ki | SMILES
1 | 0.041 nM | Cc1ncc(-c2cc(F)c(=O)n(C)c2)c(OC[C@H]2C[C@@H]2c2ccc3ccccc3n2)n1
2 | 3.48 nM | Cc1ccc([C@H]2C[C@@H]2COc2nc(C)ncc2-c2ccc(=O)n(CC#N)c2)nc1

From ChEMBL document CHEMBL3886562, “Substituted pyridone derivatives as PDE10 inhibitors” (2016)
